Reference: PubChem BioAssay (NCI)
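How tested: cells in 96-well plates exposed to compound for 48 hours at five concentrations. Definition used: TGI = concentration required for complete inhibition of growth.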

Columns and labels:
Experiment in all cases: inhibition of tumour cell growth, NCI panel, 48 h
SF-268 CNS = test system: SF-268 CNS
786-0 renal = test system: 786-0 renal
UACC-62 melanoma = test system: UACC-62 melanoma
KM12 colon = test system: KM12 colon
A498 renal = test system: A498 renal
M14 melanoma = test system: M14 melanoma
CCRF-CEM leukemia = test system: CCRF-CEM leukemia
OVCAR-8 ovarian = test system: OVCAR-8 ovarian
MALME-3M melanoma = test system: MALME-3M melanoma
EKVX NSCLC = test system: EKVX NSCLC
HCT-116 colon = test system: HCT-116 colon
SNB-75 CNS = test system: SNB-75 CNS

Compound | TGI (SF-268 CNS) | TGI (786-0 renal) | TGI (UACC-62 melanoma) | TGI (KM12 colon) | TGI (A498 renal) | TGI (M14 melanoma) | TGI (CCRF-CEM leukemia) | TGI (OVCAR-8 ovarian) | TGI (MALME-3M melanoma) | TGI (EKVX NSCLC) | TGI (HCT-116 colon) | TGI (SNB-75 CNS)
NC(=O)C(=O)c1ncn(Cc2ccccc2)c1N | > 100 µM | > 100 µM | > 100 µM | > 100 µM | > 100 µM | > 100 µM | > 100 µM | > 100 µM | > 100 µM | > 100 µM | > 100 µM | > 100 µM
CCCCc1ccc(Nc2nc(Cl)c3ncn(COCCOC(C)=O)c3n2)cc1 | 36.9 µM | 29.5 µM | 31.9 µM | 41.3 µM | 59.3 µM | 36.7 µM | > 100 µM | 32.6 µM | 31.7 µM | 20.3 µM | 31.7 µM | 44.3 µM
O=C(c1cc2ccccc2[nH]1)N1C2CCC1CN(CCOC(c1ccc(F)cc1)c1ccc(F)cc1)CC2 (stereo unspecified) | > 100 µM | > 100 µM | > 100 µM | > 100 µM | > 100 µM | > 100 µM | > 100 µM | > 100 µM | > 100 µM | > 100 µM | > 100 µM | > 100 µM
